Laboratory results: patent US12357601B2, “Composition for inhibiting growth of bacterium having menaquinone synthesis pathway through futalosine or futalosine derivative” (NOSTER INC., priority 2017, dated 2025)

Assays:
[1] = system: Helicobacter pylori SS1 strain, TN2GF4 strain, TK1029 strain, RC-1 strain; experiment: Proliferation inhibitory effect (in vitro) of low concentration fatty acid, shaking culture 24 hr, colony count; assay type: cell-based; conditions: fatty acid 20 μM, 24 hr; SS1, TN2GF4, TK1029, RC-1 strains; compared with linoleic acid
Description: Helicobacter pylori SS1 strain, TN2GF4 strain, TK1029 strain, RC-1 strain were each inoculated to a 6-well plate containing 2 mL of a liquid medium (BHI added with 5% FCS), and fatty acid (20 μM) and menaquinone (MK-4) 100 μg/mL were added. After shaking culture for 24 hr at temperature 37° C., microaerobic conditions (5% 02, 10% CO2, 85% N2), the culture medium was applied on a Helicobacter agar plate, cultured for 3 days and the resulting colonies were counted (FIG. 2-1 A: SS1 strain, FIG. 2-2 B: TN2GF4 strain, FIG. 2-3 C: TK1029 strain, FIG. 2-4 D: RC-1 strain. Item 1: control (menaquinone no addition), Item 2: control (menaquinone 100 μg/mL addition), Item 3: HYA 20 μM (menaquinone no addition), Item 4: HYA 20 μM (menaquinone 100 μg/mL addition), Item 5: linoleic acid 20 μM (menaquinone no addition), Item 6: linoleic acid 20 μM (menaquinone 100 μg/mL addition). *, P<0.0001 vs. Control (ordinary one-way ANOVA)).

[2] = system: Helicobacter pylori SS1 strain or TN2GF4 strain; experiment: Inhibitory effect (in vivo) of fatty acid, number of bacteria in gastric mucosa of infected mice; parameters: species or system C57BL/6 female mouse
Description: A 5-week-old C57BL/6 female mouse was orally infected 3 times with Helicobacter pylori SS1 strain or TN2GF4 strain (1-5×10^8 CFU) every other day and dissected at 2 weeks from the final infection day, and the number of bacteria in the gastric mucosa was counted. The measurement and the number of bacteria in the gastric mucosa was performed as follows. First, the greater curvature of the stomach of the mouse was incised with scissors for ophthalmology, and the contents were washed away with phosphate buffered saline (pH 7.4, PBS). Next, the mucous membrane was scraped with a slide glass, 1 mL of PBS was added, the mixture was sandwiched between ground glass parts of two glass slides and evenly crushed to prepare a gastric mucosa suspension. The culture medium was applied on a Helicobacter agar plate, cultured for 3 days and the resulting colonies were counted. Water added with fatty acid (200 μM) (HYA, HYB, KetoA, KetoC, linoleic acid, oleic acid, DHA, EPA) was given to the mice from 1 week before infection. The control was free of fatty acid addition (FIG. 3-1 A: infected with SS1 strain, FIG. 3-2 B: infected with TN2GF4 strain).

[3] = system: Helicobacter suis TKY strain; experiment: Gastric MALT lymphoma model: number of Helicobacter suis bacteria in the stomach 6 months after infection; assay type: in vivo, C57BL/6 female mouse; conditions: 200 μM in water
Description: (§1) Helicobacter suis is suspected to be the cause of the onset of gastric MALT lymphoma. A 5-week-old C57BL/6 female mouse was orally infected only once with a stomach suspension of Helicobacter suis TKY strain-infected mouse and dissected 6 months after the infection, and the number of bacteria in the gastric mucosa was counted according to the method described in Example 5. Water added with HYA (200 μM) was given to the mouse from one week before the infection.
The measurement of the number of Helicobacter suis bacteria in the stomach of the infected mouse was performed in the same manner as in Example 5. The relative value of the number of bacteria in gastric mucosa when that with HYA non-administration is 1 is shown (FIG. 5-1 A, Item 1: HYA non-administration group, Item 2: HYA administration group).

[4] = system: Ki-67 positive cells; experiment: Gastric MALT lymphoma model: Ki-67 positive cells in lymphoid follicle (immunostaining); assay type: in vivo, C57BL/6 female mouse; conditions: 200 μM in water; 6 months after infection with Helicobacter suis TKY strain
Description: as §1
Ki-67 is known as a marker for cell proliferation and cell cycle. Proliferated cells in a tumor tissue were detected by immunostaining with anti-Ki-67 antibody. A part of the stomach was fixed with 10% neutral formalin buffer to prepare a paraffin block, serial sections were cut out using a microtome and Hematoxylin Eosin (HE) staining was performed. Ki-67 (Clone SP6) rabbit monoclonal antibody (Thermo Fisher Scientific Inc.) diluted 1:300 was used as a dilution antibody, Histofine Simple Stain mouse MAX-PO® (NICHIREI BIOSCIENCES INC., Code: 414341) DAB staining (DAKO Inc.) was used as a secondary antibody, and Hematoxylin was used for comparison staining. As the negative control, rabbit IgG antibody (Code No. X 0936 Lot 050 (DAKO Inc.)) was used. […]

[5] = system: CD19 and CD20 expression; experiment: Gastric MALT lymphoma model: CD19, CD20 expression in gastric mucosa (real-time RT-PCR); assay type: in vivo, C57BL/6 female mouse; conditions: 200 μM in water; 6 months after infection with Helicobacter suis TKY strain; relative to GAPDH
Description: as §1
CD19 and CD20 are cell surface markers for B-cell lymphoma. Using real-time reverse transcription PCR (real-time RT-PCR), the expression levels of CD19 and CD20 were measured. Using NucleoSpin (registered trade mark) RNA Kit (Takara Bio Inc.), RNA was prepared from mouse gastric mucosa. Using PrimeScript™ RT Reagent Kit (Takara Bio Inc.), cDNA was prepared from RNA. For real-time RT-PCR, KAPA SYBR Fast ROX Low qPCR kit (KAPA BIOSYSTEMS Inc.) and QuantStudio7 Flex Real-time PCR System (Thermo Fisher Scientific Inc.) were used.
The conditions of 2-step real-time RT-PCR were as follows.
The expression level of CD19 or CD20 relative to that of glyceraldehyde-3-phosphate dehydrogenase (GAPDH) was converted to a numerical value and the value was further adjusted to make the average expression of CD19 or CD20 of the non-infection group 1. […]

[6] = system: Campylobacter jejuni ATCC33560 strain; experiment: Proliferation inhibitory effect (in vitro) on Campylobacter jejuni, absorbance and colony count; assay type: cell-based; conditions: 100, 200, 400 μM, 24 hr; concentration dependent; strong compared to linoleic acid

Question: How did the “proliferation of Helicobacter pylori (colony count)” value [1] turn out when `CCCCC/C=C\CC(O)CCCCCCCCC(=O)O` (stereo not drawn) [HYA, 10-hydroxy-cis-12-octadecenoic acid] was run?
Answer: suppressed proliferation

Question: What about the “number of Helicobacter pylori in the gastric mucosa, compared to the control” value ([2]; 200 μM in water from 1 week before infection, 2 weeks from final infection, both SS1 and TN2GF4 strain) of the same molecule?
Answer: significantly suppressed

Question: And the “suppressive action compared to HYB, KetoA, KetoC, linoleic acid, oleic acid, DHA and EPA” value ([2]; 200 μM in water, SS1 and TN2GF4 strain infected mice)?
Answer: strong suppressive action

Question: And the “number of Helicobacter suis bacteria in gastric mucosa, compared to the non-administration group” value [3]?
Answer: significantly suppressed

Question: And the “increase in the number of Ki-67 positive cells, compared to the non-administration group” value [4]?
Answer: significantly suppressed

Question: What about the “CD19 relative expression level, compared to the non-administration group” value [5] of the same molecule?
Answer: significantly suppressed

Question: And the “CD20 relative expression level, compared to the non-administration group” value [5]?
Answer: significantly suppressed

Question: And the “proliferation of Campylobacter jejuni ATCC33560 strain” value [6]?
Answer: inhibited proliferation
